Data: patent publication US20050020544A1, “Bicyclic CB2 cannabinoid receptor ligands” (priority 2002, published 2005)
Read-outs that look alike come from different tables or passages of the source.

Tests used:
[1] = tested on: Female Balb/c mice; parameters: maximal reduction in paw edema: dose or concentration left out as unconfirmed; conditions: for maximal reduction in paw thickness (MOE) / dose at which the maximal effect was observed: i.p.; for maximal reduction in paw thickness (MOE): 3 hours after carrageenan, at the dose of maximal effect; for dose at which the maximal effect was observed: paw thickness
Protocol: The purpose of this study is to test in vivo the anti-inflammatory activity of the compounds in paw edema induced by injection of 1% carrageenan in the animal hind paw. Female Balb/c mice (20 g average body weight, Harlan, Israel) are anesthetized with a combination of xylazine and pentobarbitone diluted in sterile saline, 15 and 6 mg/kg i.p. respectively. Anesthetized mice are injected subcutaneously, in the subplantar region of one (right) paw with 0.05 ml of 1% w/v Carrageenan in sterile water. […] The test compounds, including known anti-inflammatory controls, are dissolved in CREMOPHOR EL®:ethanol and further diluted 1:20 or 1:50 in sterile saline prior to i.p. injection that takes place immediately before the carrageenan injection. Three hours after injection the animals are resedated following the previously described procedure. Paw thickness is measured using a dial thickness gauge (Spring-dial, constant low pressure gauge, Mitutoyo, TG/L-1, 0.01 mm) and paw volume is measured using a plethysmometer (model #7150, Ugo Basile, Italy). Paw Edema is expressed as the difference between the right treated and the left untreated paws of the same animal, either as Δ Paw Volume (ΔPV) in millimeters cube or as Δ Paw Thickness (ΔPT) in millimeters. Each group comprises at least 10 animals. […] At the end of the study, animals are euthanized with an i.p. injection of 100 mg/kg pentobarbitone.
The differences among various treatment groups are analyzed by analysis of variance (ANOVA) followed by post-hoc Fisher test. A value of p<0.05 is considered to be statistically significant.
For sake of comparison, known anti-inflammatory drugs such as Celecoxib and Dexamethasone yield respectively in the range of relevant doses 7% and 26% reduction in paw thickness at 0.1 mg/kg, 16% and 31% at 0.25 mg/kg and 24% and 33% at 0.5 mg/kg. […] It should be kept in mind that these commercially available drugs display serious side effects that prevent chronic uses without complementary protective medication.

[2] = biological target: T1, human CB1 receptor (Homo sapiens, UniProt P21554); assay: biochemical; format: binding
T1 construct: purchased Perkin Elmer/NEN; host or cells: HEK-293 cells, stably transfected (membranes)
T1 sequence (P21554 whole entry): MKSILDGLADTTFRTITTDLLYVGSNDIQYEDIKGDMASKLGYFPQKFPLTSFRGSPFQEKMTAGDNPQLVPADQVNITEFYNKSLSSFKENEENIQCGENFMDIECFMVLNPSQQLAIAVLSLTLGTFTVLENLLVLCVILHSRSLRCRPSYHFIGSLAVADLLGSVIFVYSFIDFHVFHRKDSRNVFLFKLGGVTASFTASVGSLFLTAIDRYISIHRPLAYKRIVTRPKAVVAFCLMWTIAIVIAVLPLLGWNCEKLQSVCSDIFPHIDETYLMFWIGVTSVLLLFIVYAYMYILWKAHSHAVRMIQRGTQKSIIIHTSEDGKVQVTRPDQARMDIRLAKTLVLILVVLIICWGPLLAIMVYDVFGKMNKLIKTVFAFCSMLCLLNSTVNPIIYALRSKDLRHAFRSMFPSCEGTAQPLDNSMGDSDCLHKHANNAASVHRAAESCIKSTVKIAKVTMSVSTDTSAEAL
In short: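 Displacement of [3H]CP55940 from membranes of HEK-293 cells stably expressing human CB1, in 50 mM Tris-HCl, 2.5 mM EDTA, 5 mM MgCl2, 1 mg/ml BSA, pH 7.4, 0.1% DMSO; 1.5 h at 30° C, then filtration.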

[3] = tested on: Male Sprague Dawley rats; assay: Inflammatory pain: carrageenan paw edema in rats, thermal and mechanical stimuli; format: in vivo, rat; conditions: for ΔForce (tactile stimulus) / ΔLT (thermal stimulus): three hours
In short: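 Male Sprague Dawley rats (~200 g) with carrageenan-inflamed paw, tested before and 3 h after injection. Thermal withdrawal latency measured by Hargreaves plantar test at intensity 50, and mechanical threshold by dynamic plantar aesthesiometer. Values are inflamed minus non-inflamed paw differences at 0 and 3 h (ΔLT, ΔForce).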

[4] = biological target: human CB2 receptor (Homo sapiens, UniProt P34972); assay: biochemical; format: binding; parameters: purchased Perkin Elmer/NEN; host or cells: CHO cells, stably transfected (membranes); conditions: for IC50: displacement of [3H]WIN 55212-2, hCB2 CHO membranes; for CB2/CB1 affinity ratio: IC50 CB1/IC50 CB2
Sequence of human CB2 receptor (P34972 whole entry): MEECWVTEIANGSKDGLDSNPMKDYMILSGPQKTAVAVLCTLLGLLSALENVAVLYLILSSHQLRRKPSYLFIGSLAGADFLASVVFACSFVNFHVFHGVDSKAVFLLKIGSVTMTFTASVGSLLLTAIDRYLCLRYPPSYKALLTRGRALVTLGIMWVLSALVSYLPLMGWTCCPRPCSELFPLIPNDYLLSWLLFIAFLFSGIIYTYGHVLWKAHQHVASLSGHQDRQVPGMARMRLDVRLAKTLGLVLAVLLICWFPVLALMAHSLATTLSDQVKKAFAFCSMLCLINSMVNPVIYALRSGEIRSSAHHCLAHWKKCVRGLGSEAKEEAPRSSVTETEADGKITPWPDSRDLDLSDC
In short: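 Displacement of 0.8 nM [^3H]WIN 55212-2 from hCB2-transfected CHO membranes (25 μg protein) was measured in HEPES buffer pH 7.4 with MgCl2, EDTA and BSA, 40 min at 30 °C. Non-specific binding was defined with 10 μM CP 55940, then samples were filtered and β-counted. IC50 was extrapolated from log concentration vs % binding.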

[5] = displacement of [3H]CP55940, hCB1 HEK-293 membranes, read-out: CB1 IC50

Compound | maximal reduction in paw thickness (MOE) [1] | dose at which the maximal effect was observed [1] [mg/kg] | IC50 ([2]; CB1 IC50, displacement of [3H]CP55940, hCB1 HEK-293 membranes) [µM] | ΔForce (tactile stimulus) ([3]; 8 mg/kg i.p.) [g] | ΔLT (thermal stimulus) ([3]; 8 mg/kg i.p.) [s] | IC50 [2, 5] [µM] | IC50 to CB2, fold lower than its (+) enantiomer ([4]; compound A versus (+) enantiomer) [fold] | IC50 [4] [µM] | ΔForce (tactile stimulus) ([3]; 2 mg/kg i.p.) [g] | CB2/CB1 affinity ratio [4] | maximal reduction in paw edema ([1]; formulated in cosolvent) [%] | therapeutic index ([1]; paw edema, 0.5 mg/kg versus tolerated 40 mg/kg) | reversal of analgesic activity against thermal and mechanical stimuli by antagonists ([3]; 5 mg/kg i.p. SR141716A or SR144528, 15 minutes before carrageenan and compound) | ΔForce (tactile stimulus) ([3]; 10 mg/kg i.p.) [g] | ΔLT (thermal stimulus) ([3]; 10 mg/kg i.p.) [s]
CCCCCCC(C)(C)c1cc(OC)c(C2C=C(CO)C3CC2C3(C)C)c(OC)c1 (single isomer, unassigned; (+)) [HU-308, (+) {4-[4-(1,1-dimethylheptyl)-2,6-dimethoxy-phenyl]-6,6-dimethyl-bicyclo[3.1.1]hept-2-en-2-yl}-methanol, reference compound] | about 28% | 0.6 | 3.6 | – | – | – | – | – | – | – | – | – | – | – | –
CCCCCCC(C)(C)c1cc(O)c(C2CC(=O)C3CC2C3(C)C)c(O)c1 (single isomer, unassigned; (-)) [Compound A, (−)-4-[4-(1,1-Dimethyl-heptyl)2,6-dihydroxy-phenyl]-6,6-dimethyl-bicyclo[3.1.1)heptan-2-one] | 28% | 2.5 | – | 2 | 1.5 | 0.0276 | 10 | 0.001 | – | – | – | – | – | – | –
CCCCC(C)(C)c1cc(O)c(C2CC(=O)C3CC2C3(C)C)c(O)c1 (single isomer, unassigned; (-)) [Compound L, (−)-4-[4(1,1-Dimethyl-pentyl)-2,6-dihydroxy-phenyl]-6,6-dimethyl-bicyclo[3.1.1]heptan-2-one] | 34% | 0.25 | – | – | – | 0.446 | – | 0.0038 | 11 | 117 | – | – | – | – | –
CCCCC(C)(C)c1cc(O)c(C2CC(=O)C3CC2C3(C)C)c(OC(=O)CCC(=O)O)c1 (single isomer, unassigned; (-)) [Compound Y, (−)-4-{4-[1,1-Dimethyl-pentyl]-2-succinate-6-hydroxy-phenyl}-6,6-dimethyl-bicyclo[3.1.1]heptan-2-one] | – | – | – | – | – | 0.315 | – | 0.0074 | – | 42 | – | – | – | – | –
CCCCCCC(C)(C)c1cc(O)c([C@H]2CC(=O)[C@H]3C[C@@H]2C3(C)C)c(OC(=O)CCC(=O)O)c1 [Compound R, (−)-4-{4-[1,1-Dimethyl-heptyl]-2-succinate-6-hydroxy-phenyl}-6,6-dimethyl-bicyclo[3.1.1]heptan-2-one] | 31% | 0.5 | – | – | – | 0.041 | – | 0.0012 | – | 34 | 31 | at least 80 | not reversed by any of the antagonists | 4 | 0
